What was measured:
Test in all cases: cells
U-266 = assay type: functional, cell-based, Homo sapiens; conditions: Homo sapiens, U-266
Description: SANGER: Inhibition of human U-266 cell growth in a cell viability assay.

D-502MG = assay type: functional, cell-based, Homo sapiens; conditions: Homo sapiens, D-502MG
Description: SANGER: Inhibition of human D-502MG cell growth in a cell viability assay.

A4-Fuk = assay type: functional, cell-based, Homo sapiens; conditions: Homo sapiens, A4-Fuk;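 further: growth inhibition of A4-Fuk cells, read out by a cell viability assay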
Description: SANGER: Inhibition of human A4-Fuk cell growth in a cell viability assay.

HT = assay type: functional, cell-based, Homo sapiens; conditions: Homo sapiens, HT
Description: SANGER: Inhibition of human HT cell growth in a cell viability assay.

RXF 393 = assay type: functional, cell-based, Homo sapiens; conditions: Homo sapiens, RXF 393;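 further: growth inhibition of human RXF 393 cells, read out with a cell viability assay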
Description: SANGER: Inhibition of human RXF393 cell growth in a cell viability assay.

LU-134-A = assay type: functional, cell-based, Homo sapiens; conditions: Homo sapiens, LU-134-A
Description: SANGER: Inhibition of human LU-134-A cell growth in a cell viability assay.

MC116 = assay type: functional, cell-based, Homo sapiens; conditions: Homo sapiens, MC116;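 further: growth inhibition of MC116 cells, read out with a cell viability assay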
Description: SANGER: Inhibition of human MC116 cell growth in a cell viability assay.

LS-1034 = assay type: functional, cell-based, Homo sapiens; conditions: Homo sapiens, LS-1034
Description: SANGER: Inhibition of human LS-1034 cell growth in a cell viability assay.

LB2241-RCC = assay type: functional, cell-based, Homo sapiens; conditions: Homo sapiens, LB2241-RCC;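 further: cell viability assay measuring how strongly the cultured human renal carcinoma line is prevented from growing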
Description: SANGER: Inhibition of human LB2241-RCC cell growth in a cell viability assay.

LB1047-RCC = assay type: functional, cell-based, Homo sapiens; conditions: Homo sapiens, LB1047-RCC;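 further: inhibition of cell growth, determined with a cell viability assay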
Description: SANGER: Inhibition of human LB1047-RCC cell growth in a cell viability assay.

HCE-T = assay type: functional, cell-based, Homo sapiens; conditions: Homo sapiens, HCE-T;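 further: cell viability assay read-out, reporting inhibition of HCE-T cell growth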
Description: SANGER: Inhibition of human HCE-T cell growth in a cell viability assay.

NCI-H1155 = assay type: functional, cell-based, Homo sapiens; conditions: Homo sapiens, NCI-H1155;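 further: cell growth inhibition measured by a viability assay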
Description: SANGER: Inhibition of human NCI-H1155 cell growth in a cell viability assay.

RH-1 = assay type: functional, cell-based, Homo sapiens; conditions: Homo sapiens, RH-1;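 further: growth inhibition of human RH-1 cells, read out with a cell viability assay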
Description: SANGER: Inhibition of human RH-1 cell growth in a cell viability assay.

SH-4 = assay type: functional, cell-based, Homo sapiens; conditions: Homo sapiens, SH-4;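 further: growth inhibition of SH-4 cells, read out with a cell viability assay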
Description: SANGER: Inhibition of human SH-4 cell growth in a cell viability assay.

MOLT-4 = assay type: functional, cell-based, Homo sapiens; conditions: Homo sapiens, MOLT-4;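 further: growth inhibition of MOLT-4 cells, determined with a cell viability readout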
Description: SANGER: Inhibition of human MOLT-4 cell growth in a cell viability assay.

MLMA = assay type: functional, cell-based, Homo sapiens; conditions: Homo sapiens, MLMA;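 further: growth inhibition of MLMA cells (human), determined through a cell viability readout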
Description: SANGER: Inhibition of human MLMA cell growth in a cell viability assay.

SNU-C2B = assay type: functional, cell-based, Homo sapiens; conditions: Homo sapiens, SNU-C2B;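 further: cell viability readout used to measure compound-driven suppression of SNU-C2B cell proliferation, IC50 marking half-maximal growth inhibition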
Description: SANGER: Inhibition of human SNU-C2B cell growth in a cell viability assay.

NCI-H23 = assay type: functional, cell-based, Homo sapiens; conditions: Homo sapiens, NCI-H23;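 further: cell viability assay measuring growth inhibition of NCI-H23 cells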
Description: SANGER: Inhibition of human NCI-H23 cell growth in a cell viability assay.

SW 954 = assay type: functional, cell-based, Homo sapiens; conditions: Homo sapiens, SW 954;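 further: growth inhibition of SW954 human cancer cells, read out as cell viability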
Description: SANGER: Inhibition of human SW954 cell growth in a cell viability assay.

Mo = assay type: functional, cell-based, Homo sapiens; conditions: Homo sapiens, Mo
Description: SANGER: Inhibition of human Mo-T cell growth in a cell viability assay.

CAS-1 = assay type: functional, cell-based, Homo sapiens; conditions: Homo sapiens, CAS-1;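 further: growth inhibition of CAS-1 cells, measured with a cell viability assay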
Description: SANGER: Inhibition of human CAS-1 cell growth in a cell viability assay.

BB65-RCC = assay type: functional, cell-based, Homo sapiens; conditions: Homo sapiens, BB65-RCC;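 further: growth inhibition of the cell line, measured with a cell viability assay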
Description: SANGER: Inhibition of human BB65-RCC cell growth in a cell viability assay.

MEG-01 = assay type: functional, cell-based, Homo sapiens; conditions: Homo sapiens, MEG-01;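 further: growth inhibition of MEG-01 cells, read out by a cell viability assay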
Description: SANGER: Inhibition of human MEG-01 cell growth in a cell viability assay.

HAL-01 = assay type: functional, cell-based, Homo sapiens; conditions: Homo sapiens, HAL-01;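 further: growth inhibition of human HAL-01 cells, read out with a cell viability assay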
Description: SANGER: Inhibition of human HAL-01 cell growth in a cell viability assay.

SF-539 = assay type: functional, cell-based, Homo sapiens; conditions: Homo sapiens, SF-539;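 further: Read-out is a cell viability assay, with IC50 reflecting inhibition of cell growth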
Description: SANGER: Inhibition of human SF539 cell growth in a cell viability assay.

OS-RC-2 = assay type: functional, cell-based, Homo sapiens; conditions: Homo sapiens, OS-RC-2;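 further: growth inhibition of human OS-RC-2 cells, measured by a cell viability assay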
Description: SANGER: Inhibition of human OS-RC-2 cell growth in a cell viability assay.

BE-13 = assay type: functional, cell-based, Homo sapiens; conditions: Homo sapiens, BE-13;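 further: growth inhibition of human BE-13 cells, measured with a cell viability assay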
Description: SANGER: Inhibition of human BE-13 cell growth in a cell viability assay.

LB996-RCC = assay type: functional, cell-based, Homo sapiens; conditions: Homo sapiens, LB996-RCC
Description: SANGER: Inhibition of human LB996-RCC cell growth in a cell viability assay.

OCI-AML2 = assay type: functional, cell-based, Homo sapiens; conditions: Homo sapiens, OCI-AML2;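 further: growth inhibition of OCI-AML2 cells, read out with a cell viability assay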
Description: SANGER: Inhibition of human OCI-AML2 cell growth in a cell viability assay.

A704 = assay type: functional, cell-based, Homo sapiens; conditions: Homo sapiens, A704;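 further: growth inhibition of human A704 cells, read out with a cell viability assay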
Description: SANGER: Inhibition of human A704 cell growth in a cell viability assay.

SK-NEP-1 = assay type: functional, cell-based, Homo sapiens; conditions: Homo sapiens, SK-NEP-1;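 further: growth inhibition of human SK-NEP-1 cells, read out by a cell viability assay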
Description: SANGER: Inhibition of human SK-NEP-1 cell growth in a cell viability assay.

LB2518-MEL = assay type: functional, cell-based, Homo sapiens; conditions: Homo sapiens, LB2518-MEL;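 further: growth inhibition of human LB2518-MEL cells, measured with a cell viability assay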
Description: SANGER: Inhibition of human LB2518-MEL cell growth in a cell viability assay.

Ramos-2G6-4C10 = assay type: functional, cell-based, Homo sapiens; conditions: Homo sapiens, Ramos-2G6-4C10;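 further: growth inhibition of the cell line, measured by a cell viability read-out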
Description: SANGER: Inhibition of human Ramos-2G6-4C10 cell growth in a cell viability assay.

697 = assay type: functional, cell-based, Homo sapiens; conditions: Homo sapiens
Description: SANGER: Inhibition of human 697 cell growth in a cell viability assay.

EW-3 = assay type: functional, cell-based, Homo sapiens; conditions: Homo sapiens, EW-3;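 further: cell viability assay read-out, IC50 reflects inhibition of growth of the EW-3 cells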
Description: SANGER: Inhibition of human EW-3 cell growth in a cell viability assay.

DMS-114 = assay type: functional, cell-based, Homo sapiens; conditions: Homo sapiens, DMS-114
NCI-H1770 = assay type: functional, cell-based, Homo sapiens; conditions: Homo sapiens, NCI-H1770;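 further: growth inhibition of NCI-H1770 cells determined with a viability readout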
Description: SANGER: Inhibition of human NCI-H1770 cell growth in a cell viability assay.

GT3TKB = assay type: functional, cell-based, Homo sapiens; conditions: Homo sapiens, GT3TKB;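 further: growth inhibition of the cell line, read out with a cell viability assay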
Description: SANGER: Inhibition of human GT3TKB cell growth in a cell viability assay.

A498 = assay type: functional, cell-based, Homo sapiens; conditions: Homo sapiens, A498;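 further: growth inhibition of human A498 cells, read out with a cell viability assay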
Description: SANGER: Inhibition of human A498 cell growth in a cell viability assay.

TE-1 = assay type: functional, cell-based, Homo sapiens; conditions: Homo sapiens, TE-1;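 further: growth inhibition of the human TE-1 cell line, read out with a cell viability assay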
Description: SANGER: Inhibition of human TE-1 cell growth in a cell viability assay.

SK-PN-DW = assay type: functional, cell-based, Homo sapiens; conditions: Homo sapiens, SK-PN-DW;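 further: growth inhibition measured with a viability assay on these cells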
Description: SANGER: Inhibition of human SK-PN-DW cell growth in a cell viability assay.

GR-ST = assay type: functional, cell-based, Homo sapiens; conditions: Homo sapiens, GR-ST
Description: SANGER: Inhibition of human GR-ST cell growth in a cell viability assay.

ES3 = assay type: functional, cell-based, Homo sapiens; conditions: Homo sapiens, ES3;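 further: growth inhibition of ES3 cells, read out with a cell viability assay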
Description: SANGER: Inhibition of human ES3 cell growth in a cell viability assay.

SK-MEL-1 = assay type: functional, cell-based, Homo sapiens; conditions: Homo sapiens, SK-MEL-1;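 further: growth inhibition of human SK-MEL-1 cells, read out by a cell viability assay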
Description: SANGER: Inhibition of human SK-MEL-1 cell growth in a cell viability assay.

EM-2 = assay type: functional, cell-based, Homo sapiens; conditions: Homo sapiens, EM-2;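 further: growth inhibition of EM-2 cells, read out with a cell viability assay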
Description: SANGER: Inhibition of human EM-2 cell growth in a cell viability assay.

MV4-11 = assay type: functional, cell-based, Homo sapiens, MV-4-11; conditions: Homo sapiens, MV4-11;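 further: cell viability readout measuring growth inhibition of human MV-4-11 cells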
Description: SANGER: Inhibition of human MV-4-11 cell growth in a cell viability assay.

LXF-289 cell line = assay type: functional, cell-based, Homo sapiens; conditions: Homo sapiens, LXF-289
Description: SANGER: Inhibition of human LXF-289 cell growth in a cell viability assay.

HuTu80 = assay type: functional, cell-based, Homo sapiens, HUTU-80; conditions: Homo sapiens, HuTu80;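 further: growth inhibition of HuTu80 human cells, determined with a cell viability readout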
Description: SANGER: Inhibition of human HUTU-80 cell growth in a cell viability assay.

Structure (SMILES): COc1cc2c(Nc3ccc(NC(=O)c4ccccc4)cc3)ncnc2cc1OCCCN1CCOCC1
- IC50 (U-266): 2.84 µM
- IC50 (D-502MG): 3.97 µM
- IC50 (A4-Fuk): 3.77 µM
- IC50 (HT): > 4 µM
- IC50 (RXF 393): 3.49 µM
- IC50 (LU-134-A): > 4 µM
- IC50 (MC116): > 4 µM
- IC50 (LS-1034): > 4 µM
- IC50 (LB2241-RCC): 1.04 µM
- IC50 (LB1047-RCC): > 4 µM
- IC50 (HCE-T): > 4 µM
- IC50 (NCI-H1155): 3.04 µM
- IC50 (RH-1): > 4 µM
- IC50 (SH-4): > 4 µM
- IC50 (MOLT-4): 0.9 µM
- IC50 (MLMA): > 4 µM
- IC50 (SNU-C2B): > 4 µM
- IC50 (NCI-H23): > 4 µM
- IC50 (SW 954): 0.836 µM
- IC50 (Mo): > 4 µM
- IC50 (CAS-1): > 4 µM
- IC50 (BB65-RCC): > 4 µM
- IC50 (MEG-01): > 4 µM
- IC50 (HAL-01): > 4 µM
- IC50 (SF-539): > 4 µM
- IC50 (OS-RC-2): > 4 µM
- IC50 (BE-13): 0.844 µM
- IC50 (LB996-RCC): > 4 µM
- IC50 (OCI-AML2): 3.68 µM
- IC50 (A704): > 4 µM
- IC50 (SK-NEP-1): 1.36 µM
- IC50 (LB2518-MEL): > 4 µM
- IC50 (Ramos-2G6-4C10): 1.41 µM
- IC50 697: 0.739 µM
- IC50 (EW-3): > 4 µM
- IC50 (DMS-114): > 4 µM
- IC50 (NCI-H1770): > 4 µM
- IC50 (GT3TKB): > 4 µM
- IC50 (A498): 2.37 µM
- IC50 (TE-1): > 4 µM
- IC50 (SK-PN-DW): > 4 µM
- IC50 (GR-ST): > 4 µM
- IC50 (ES3): 0.473 µM
- IC50 (SK-MEL-1): > 4 µM
- IC50 (EM-2): 1.42 µM
- IC50 (MV4-11): 0.796 µM
- IC50 (LXF-289 cell line): 2.54 µM

Structure (SMILES): CC(C)c1ccccc1Cc1cc(C(=O)Nc2ccc(S(=O)(=O)c3ccccc3C(C)(C)C)cc2)c(O)c(O)c1O
- IC50 (D-502MG): 4.92 µM
- IC50 (RXF 393): 1.21 µM
- IC50 (LS-1034): 1.36 µM
- IC50 (LB2241-RCC): 0.147 µM
- IC50 (LB1047-RCC): 0.319 µM
- IC50 (HCE-T): 0.231 µM
- IC50 (RH-1): 0.158 µM
- IC50 (SH-4): 0.227 µM
- IC50 (MLMA): 0.185 µM
- IC50 (SNU-C2B): 0.257 µM
- IC50 (NCI-H23): 0.348 µM
- IC50 (SW 954): 0.467 µM
- IC50 (CAS-1): 2.78 µM
- IC50 (BB65-RCC): 0.135 µM
- IC50 (SF-539): 0.47 µM
- IC50 (OS-RC-2): 0.737 µM
- IC50 (LB996-RCC): 0.25 µM
- IC50 (HuTu80): 0.087 µM
- IC50 (LB2518-MEL): 0.178 µM
- IC50 (DMS-114): 0.0907 µM
- IC50 (GT3TKB): 0.301 µM
- IC50 (A498): 1.49 µM
- IC50 (TE-1): 0.957 µM
- IC50 (ES3): 0.359 µM
- IC50 (LXF-289 cell line): 0.0728 µM
